Where only a bound is given, the exact number is not on record here.

What all share (assay type): cell-based
The subject of experiment [1] is A375. As to the kind of experiment: Cell proliferation assay, A375. The following applies: Homo sapiens, A-375. Here is the method: (§1) A panel of cancer cell lines may be obtained from the DCTP Tumor Repository, National Cancer Institute (Frederick, Md.) or ATCC (Rockville, Md.). Cell cultures are maintained in Hyclone RPMI 1640 medium (Logan, Utah) supplemented with 10% fetal bovine serum and 20 mM HEPES buffer, final pH 7.2, at 37° C. with a 5% CO2 atmosphere. Cultures are maintained at sub-confluent densities. Human umbilical vein endothelial cells (HUVEC) are purchased from Clonetics, a division of Cambrex (Walkersville, Md.). Cultures are established from cryopreserved stocks using Clonetics EGM-2 medium supplemented with 20 mM HEPES, final pH 7.2, at 37° C. with a 5% CO2 atmosphere.
(§2) For proliferation assays, cells are seeded with the appropriate medium into 96 well plates at 1,000-2,500 cells per well, depending on the cell line, and are incubated overnight. The following day, test compound, DMSO solution (negative control), or Actinomycin D (positive control) is added to the appropriate wells as 10× concentrated stocks prepared in phosphate buffered saline. The cell plates are then incubated for an additional 2-5 days, depending on the cell line, to allow proliferation to occur. To measure cell density, 50 μL of WST-1 solution (Roche Applied Science, IN) diluted 1:5 in phosphate buffered saline is added to each well, and the cells incubated for an additional 1-5 hrs, again depending on the cell line. Optical density is determined for each well at […] using a Tecan GeniosPro plate reader (RTP, NC). The percentage of cell growth is determined by comparing the cell growth in the presence of test compounds to the cells treated with DMSO vehicle (control, 100% growth) and cells treated with Actinomycin D (10 μM, 0% growth).
(§3) Immediately after the WST-1 determination, the medium is removed from the cell lines, and the plates stored at −80° C. Using these assay plates, relative amounts of DNA in each well are determined using the Cyquant DNA assay kit from […] (Eugene, Oreg.) following the manufacturer's directions. Results for each compound treatment are compared to DMSO vehicle control (100%) and 10 μM Actinomycin D treated cells (0%).

Experiment [2] deals with pErk. In words: AU565 imaging assay, pErk inhibition. The conditions noted are these: Homo sapiens, 24 hours treatment. Here is the method: (§4) Cells of multiple human tumor lines were plated in Packard Viewplate-96, incubated overnight, and then treated with test compound for 24 hours. Following treatment, cell monolayers were fixed using standard methods and treated with antibodies targeted to the indicated Hsp90 clients. Primary antibodies were detected using a fluoroscene isothiocyanate (FITC)-conjugated anti-mouse antibody and a tetramethyl rhodamine isothiocyanate (TRITC)-conjugated anti-rabbit antibody. Deoxyribonucleic acid was stained and images were obtained using the compartmental analysis algorithm on a Cellomics Array scan 4.5 according to manufacturer instructions. Average intensities for vehicle control and treated wells were compared with test compound-treated cells to determine the 50% efficacious concentration (EC50) values. This methodology was augmented with an alternative method of immune-detection for p-Akt levels. Luminex detection of p-Akt used to directly assay the client effect, Akt, as well as the competency of the signaling cascade, as indicated by phosphorylation of S6 kinase.

The test system of experiment [3] is HSP70. In words: A375 imaging assay, HSP70 induction. The following applies: Homo sapiens, A-375, 24 hours treatment. As to the method:
as §4

Experiment [4] has as its system pS6. As to the kind of experiment: A375 imaging assay, pS6 inhibition. The conditions noted are these: Homo sapiens, A-375, 24 hours treatment. Here is the method:
as §4

Experiment [5] concerns NCI-H460. As to the kind of experiment: Cell proliferation assay, NCI-H460. The conditions noted are these: Homo sapiens. As to the method: as §1, §2, §3
In experiment [6] the test system is Her2. As to the kind of experiment: AU565 imaging assay, Her2 degradation. The conditions noted are these: Homo sapiens, 24 hours treatment. As to the method:
as §4

Experiment [7] deals with PC-3. In words: Cell proliferation assay, PC-3. The conditions noted are these: Homo sapiens. As to the method: as §1, §2, §3
The test system of experiment [8] is K562. In words: Cell proliferation assay, K562. The following applies: Homo sapiens. As to the method:
as §1, §2, §3

As usually defined, the IC50 is the point on the concentration scale where inhibition reaches its midpoint. Read a low IC50 as greater potency. By EC50 is commonly meant the midpoint of the concentration-response curve. As to `Cc1nn(-c2cc(F)c(C(N)=O)c(N[C@H]3CCOC3)c2)c2c1CCC(C)(C)C2` [EX-013, (S)-2-fluoro-6-(tetrahydrofuran-3-ylamino)-4-(3,6,6-trimethyl-4,5,6,7-tetrahydro-1H-indazol-1-yl)benzamide], the IC50 in experiment [1] turned out to be 176 ± 145 nM; in experiment [5] (NCI-H460 (Table 2B)) it was 3170 ± 791 nM; in experiment [7], 160 ± 81.4 nM; in experiment [8], 242 ± 118 nM. The EC50 in experiment [2] turned out to be 360 nM; in experiment [3] it was 77.7 nM; in experiment [4], 156 nM; in experiment [6], 329 nM.

For `CC1=CC(C)(C)Cc2c1c(C)nn2-c1cc(F)c(C(N)=O)c(N[C@H]2CC[C@H](O)CC2)c1` [EX-017, 2-fluoro-6-((1R,4R)-4-hydroxycyclohexylamino)-4-(3,4,6,6-tetramethyl-6,7-dihydro-1H-indazol-1-yl)benzamide], the half-inhibitory concentration (IC50) turned out to be 2580 nM in experiment [1], 2130 nM in experiment [5] (NCI-H46 (Table 2A)), 1550 nM in experiment [7] and 1690 nM in experiment [8].

Regarding `Cc1nn(-c2cc(F)c(C(N)=O)c(N[C@H]3CC[C@H](O)CC3)c2)c2c1C=CC(C)(C)C2` [EX-008, 2-fluoro-6-((1r,4r)-4-hydroxycyclohexylamino)-4-(3,6,6-trimethyl-6,7-dihydro-1H-indazol-1-yl)benzamide], the half-maximal inhibitory concentration (IC50) in experiment [1] worked out at 69.7 ± 9.3 nM; in experiment [5] (NCI-H46 (Table 2A)), 142 ± 59 nM; in experiment [7], 40.5 ± 7.9 nM; in experiment [8] it was 250 ± 77.5 nM. Moreover, the half-maximal effective concentration (EC50) in experiment [2] turned out to be 112 nM; in experiment [3] it was 54 nM; in experiment [4] it was 59.1 nM; in experiment [6], 51 nM.

Consider `Cc1nn(-c2cc(F)c(C(N)=O)c(N[C@H]3CCC[C@@H]3O)c2)c2c1CCC(C)(C)C2` [EX-007, 2-fluoro-6-((1S,2S)-2-hydroxycyclopentylamino)-4-(3,6,6-trimethyl-4,5,6,7-tetrahydro-1H-indazol-1-yl)benzamide], for which the IC50 in experiment [1] is 1 ± 0.466 nM; in experiment [5] (NCI-H460 (Table 2B)), 41.4 ± 18.4 nM; in experiment [7] it was 74.1 ± 70.6 nM; in experiment [8], 92.3 ± 32.7 nM. In addition, the 50% effective concentration (EC50) in experiment [2] stood at 1.5 nM; in experiment [3], 0.092 nM; in experiment [4] it was 4.3 nM; in experiment [6] it was 0.366 nM.

In the case of `Cc1nn(-c2cc(F)c(C(N)=O)c(NC3CCOC3)c2)c2c1C=CC(C)(C)C2` (stereo not drawn) [EX-012, 2-fluoro-6-(tetrahydrofuran-3-ylamino)-4-(3,6,6-trimethyl-6,7-dihydro-1H-indazol-1-yl)benzamide], the IC50 was 242 ± 192 nM in experiment [1], 1380 ± 425 nM in experiment [5] (NCI-H460 (Table 2B)), less than 80 nM in experiment [7] and 172 ± 72.3 nM in experiment [8]. The EC50 in experiment [2] was determined as 322 nM; in experiment [3], 45.4 nM; in experiment [4], 73.8 nM; in experiment [6], 205 nM.

`Cc1nn(-c2cc(F)c(C(N)=O)c(N[C@H]3CCCC[C@@H]3O)c2)c2c1CCC(C)(C)C2` [EX-015, 2-fluoro-6-((1S,2S)-2-hydroxycyclohexylamino)-4-(3,6,6-trimethyl-4,5,6,7-tetrahydro-1H-indazol-1-yl)benzamide]: the concentration for half-maximal inhibition (IC50) in experiment [1] was found to be 448 ± 50.2 nM; in experiment [5] (NCI-H460 (Table 2B)), 1910 ± 513 nM; in experiment [7], 344 ± 10.2 nM; in experiment [8], 359 ± 42.4 nM. The concentration for a half-maximal effect (EC50) in experiment [2] came to 820 nM; in experiment [3] it was 346 nM; in experiment [4], 241 nM; in experiment [6], 667 nM.

For the molecule `Cc1nn(-c2cc(F)c(C(N)=O)c(N[C@@H]3CCCC[C@H]3O)c2)c2c1C=CC(C)(C)C2` [EX-014, 2-fluoro-6-((1R,2R)-2-hydroxycyclohexylamino)-4-(3,6,6-trimethyl-6,7-dihydro-1H-indazol-1-yl)benzamide], the IC50 in experiment [1] came out at 630 ± 106 nM; in experiment [5] (NCI-H460 (Table 2B)) it was 1370 ± 325 nM; in experiment [7] it was 364 ± 7.8 nM; in experiment [8] it was 363 ± 57.4 nM. Moreover, the concentration for a half-maximal effect (EC50) in experiment [2] turned out to be 457 nM; in experiment [3] it was 464 nM; in experiment [4], 115 nM; in experiment [6], 329 nM.

In the case of `Cc1nn(-c2cc(F)c(C(N)=O)c(NC3CCCCC3)c2)c2c1CCC(C)(C)C2` [EX-011, 2-(cyclohexylamino)-6-fluoro-4-(3,6,6-trimethyl-4,5,6,7-tetrahydro-1H-indazol-1-yl)benzamide], the IC50 was 9520 nM in experiment [1], 8590 nM in experiment [5] (NCI-H46 (Table 2A)), 5120 nM in experiment [7] and 4280 nM in experiment [8].

Take `Cc1nn(-c2cc(F)c(C(N)=O)c(N[C@H]3CC[C@H](O)CC3)c2)c2c1CCC(C)(C)C2` [EX-009, 2-fluoro-6-((1r,4r)-4-hydroxycyclohexylamino)-4-(3,6,6-trimethyl-4,5,6,7-tetrahydro-1H-indazol-1-yl)benzamide]: the IC50 amounted to 76 ± 43.1 nM in experiment [1], 167 ± 22.4 nM in experiment [5] (NCI-H46 (Table 2A)), 44.1 ± 6.1 nM in experiment [7] and 277 ± 81.8 nM in experiment [8]. For the same molecule, the EC50 stood at 101 nM in experiment [2], 37.2 nM in experiment [3], 28.5 nM in experiment [4] and 35.8 nM in experiment [6].

As to `Cc1nn(-c2cc(F)c(C(N)=O)c(N[C@H]3CC[C@H](O)CC3)c2)c2c1C(C)CC(C)(C)C2` (stereo partly drawn) [EX-016, 2-fluoro-6-((1R,4R)-4-hydroxycyclohexylamino)-4-(3,4,6,6-tetramethyl-4,5,6,7-tetrahydro-1H-indazol-1-yl)benzamide], the IC50 in experiment [1] amounted to 10200 nM; in experiment [5] (NCI-H46 (Table 2A)) it was 6550 nM; in experiment [7], 6490 nM; in experiment [8], 6340 nM.

With `Cc1nn(-c2cc(F)c(C(N)=O)c(NC3CCCCC3)c2)c2c1C=CC(C)(C)C2` [EX-010, 2-(cyclohexylamino)-6-fluoro-4-(3,6,6-trimethyl-6,7-dihydro-1H-indazol-1-yl)benzamide], the concentration for half-maximal inhibition (IC50) in experiment [1] stood at 2260 nM; in experiment [5] (NCI-H46 (Table 2A)), 5080 nM; in experiment [7], 3310 nM; in experiment [8], 48000 nM.

The record behind these values is US10246421B2, “Indazolyl- and indolyl-benzamide derivatives” (ESANEX, INC., priority 2014, dated 2019).
